For experiment [1], the system named is Rattus norvegicus. Put plainly: Evaluated for the ovulation effects in the rat by administering the drug at the doses (10 ug); 5/5. It is filed as functional, organism-based.
The target of experiment [2] is T1, Gonadotropin-releasing hormone receptor (Rattus norvegicus, UniProt P30969).
T1 sequence (P30969 whole entry): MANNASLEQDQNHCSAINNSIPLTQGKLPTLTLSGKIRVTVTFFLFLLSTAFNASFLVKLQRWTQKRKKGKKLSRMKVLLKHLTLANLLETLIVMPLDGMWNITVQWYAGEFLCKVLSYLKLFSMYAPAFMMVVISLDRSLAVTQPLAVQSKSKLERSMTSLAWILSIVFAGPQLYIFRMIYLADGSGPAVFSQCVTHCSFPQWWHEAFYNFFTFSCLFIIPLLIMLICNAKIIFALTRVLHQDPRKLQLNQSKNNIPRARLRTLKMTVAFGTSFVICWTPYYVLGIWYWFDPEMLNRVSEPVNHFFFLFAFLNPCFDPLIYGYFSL
Briefly: Competitive radioligand binding assay, in human HEK293 cells stably transfected with the rat Gonadotropin-releasing hormone receptor. It is filed as cell-based.

Experiment [3] concerns Rattus norvegicus. Briefly: Evaluated for the ovulation effects in the rat by administering the drug at the doses (25 ug); 0/4. It is filed as functional, organism-based.
For experiment [4], the system named is Rattus norvegicus. Put plainly: Evaluated for the ovulation effects in the rat by administering the drug at the doses (500 ug); 3/8. It is filed as functional, organism-based.
For experiment [5], the system named is Rattus norvegicus. Put plainly: Evaluated for the ovulation effects in the rat by administering the drug at the doses (100 ug); 5/5. It is filed as functional, organism-based.
In experiment [6] the test system is Rattus norvegicus. Briefly: Evaluated for the ovulation effects in the rat by administering the drug at the doses (2.5 ug); 2/8.
In experiment [7] the test system is Rattus norvegicus. Put plainly: Evaluated for the ovulation effects in the rat by administering the drug at the doses (5.0 ug); 0/6. It is filed as functional, organism-based.
In experiment [8] the test system is Rattus norvegicus. Put plainly: Evaluated for the ovulation effects in the rat by administering the drug at the doses (25 ug); 0/5. It is filed as functional, organism-based.
The test system of experiment [9] is Rattus norvegicus. Put plainly: Evaluated for the ovulation effects in the rat by administering the drug at the doses (10 ug); 4/6. It is filed as functional, organism-based.
The test system of experiment [10] is Rattus norvegicus. Put plainly: Evaluated for the ovulation effects in the rat by administering the drug at the doses (5 ug); 3/3. It is filed as functional, organism-based.
Experiment [11] deals with Rattus norvegicus. Put plainly: Evaluated for the ovulation effects in the rat by administering the drug at the doses (25 ug); 0/8. It is filed as functional, organism-based.
For experiment [12], the system named is Rattus norvegicus. Briefly: Evaluated for the ovulation effects in the rat by administering the drug at the doses (25 ug); 0/3. It is filed as functional, organism-based.
For experiment [13], the system named is Rattus norvegicus. Briefly: Evaluated for the ovulation effects in the rat by administering the drug at the doses (10 ug); 1/6. It is filed as functional, organism-based.
In experiment [14] the test system is Rattus norvegicus. Put plainly: Evaluated for the ovulation effects in the rat by administering the drug at the doses (2.5 ug); 14/16. It is filed as functional, organism-based.
The subject of experiment [15] is Rattus norvegicus. Put plainly: Evaluated for the ovulation effects in the rat by administering the drug at the doses (25 ug); 4/5. It is filed as functional, organism-based.
For experiment [16], the system named is Rattus norvegicus. Briefly: Evaluated for the ovulation effects in the rat by administering the drug at the doses (50 ug); 0/7. It is filed as functional, organism-based.
Experiment [17] concerns Rattus norvegicus. Put plainly: Evaluated for the ovulation effects in the rat by administering the drug at the doses (2.5 ug); 1/8. It is filed as functional, organism-based.
Experiment [18] deals with Rattus norvegicus. Put plainly: Evaluated for the ovulation effects in the rat by administering the drug at the doses (1.0 ug); 2/11. It is filed as functional, organism-based.
Experiment [19] has as its system Rattus norvegicus. Briefly: Evaluated for the ovulation effects in the rat by administering the drug at the doses (0.5 ug); 5/5. It is filed as functional, organism-based.

Calls of active or inactive are those of the source. The rule behind the calls is not given here. Positions of bridges follow the written chain, without caps; N, C: chain ends. Non-standard residues stand in square brackets, D forms with d. Residues, ends and D or L forms follow the SMILES beside them. dPhe(4-Cl) = N[C@H](Cc1ccc(Cl)cc1)C(=O)O; d2Nal = N[C@H](Cc1ccc2ccccc2c1)C(=O)O; d3Pal = N[C@H](Cc1cccnc1)C(=O)O; Dab = NCC[C@H](N)C(=O)O; Dap = NC[C@H](N)C(=O)O

Turning to `CC(=O)N[C@H](Cc1ccc2ccccc2c1)C(=O)N[C@H](Cc1ccc(Cl)cc1)C(=O)N[C@H](Cc1cccnc1)C(=O)N[C@H]1CC(=O)NC[C@@H](C(N)=O)NC(=O)[C@@H]2CCCN2C(=O)[C@@H]2CCNC(=O)[C@H](Cc3ccccc3)NC(=O)CC[C@H](NC1=O)C(=O)N[C@H](CCCNC(N)=O)C(=O)N[C@@H](CC(C)C)C(=O)N2`, in experiment [1], the outcome was inactive. Besides, in experiment [2], the Ki (as a rule, the dissociation constant of the complex between target and ligand, obtained from inhibition or displacement) worked out at 0.2 nM. In addition, in experiment [3], the result was Active.
As for `CC(=O)N[C@H](Cc1ccc2ccccc2c1)C(=O)N[C@H](Cc1ccc(Cl)cc1)C(=O)N[C@H](Cc1cccnc1)C(=O)N[C@H]1CC(=O)NC[C@@H](C(N)=O)NC(=O)[C@@H]2CCCN2C(=O)[C@@H]2CCNC(=O)[C@@H](Cc3ccccc3)NC(=O)CC[C@H](NC1=O)C(=O)N[C@H](CCCN=C(N)N)C(=O)N[C@@H](CC(C)C)C(=O)N2`, the Activity entry in [4] is “Weak activity”. The molecule also had a Ki in experiment [2] of 120 nM. Besides, in experiment [5], the outcome was inactive.
In [2], `CC(=O)N[C@H](Cc1ccc2ccccc2c1)C(=O)N[C@H](Cc1ccc(Cl)cc1)C(=O)N[C@H](Cc1cccnc1)C(=O)N[C@H]1CC(=O)NC[C@@H](C(N)=O)NC(=O)[C@@H]2CCCN2C(=O)[C@@H]2CCNC(=O)[C@H](Cc3ccc(Cl)cc3)NC(=O)CC[C@H](NC1=O)C(=O)N[C@H](CCCN=C(N)N)C(=O)N[C@@H](CC(C)C)C(=O)N2` gave a Ki of 0.23 nM. In addition, in [6], the Activity entry was “Weak activity”. The outcome in experiment [7] was Active.
As for `CC(=O)N[C@H](Cc1ccc2ccccc2c1)C(=O)N[C@H](Cc1ccc(Cl)cc1)C(=O)N[C@H](Cc1cccnc1)C(=O)N[C@H]1CC(=O)NC[C@@H](C(N)=O)NC(=O)[C@@H]2CCCN2C(=O)[C@@H]2CCNC(=O)CNC(=O)C[C@H](NC1=O)C(=O)N[C@H](CCCN=C(N)N)C(=O)N[C@@H](CC(C)C)C(=O)N2`, in experiment [8], the result was Active. The same molecule had a Ki in [2] of 0.35 nM. Moreover, the Activity entry in [9] is “Weak activity”. Further, in [10], the result was inactive.
Regarding `CC(=O)N[C@H](Cc1ccc2ccccc2c1)C(=O)N[C@H](Cc1ccc(Cl)cc1)C(=O)N[C@H](Cc1cccnc1)C(=O)N[C@H]1CC(=O)NC[C@@H](C(N)=O)NC(=O)[C@@H]2CCCN2C(=O)[C@@H]2CCCNC(=O)[C@H](Cc3ccccc3)NC(=O)CC[C@H](NC1=O)C(=O)N[C@H](CCCN=C(N)N)C(=O)N[C@@H](CC(C)C)C(=O)N2`, the outcome in experiment [1] was inactive. Moreover, the result in [11] was Active. In [2], affinity was put at a Ki of 0.27 nM.
Consider `CC(=O)N[C@H](Cc1ccc2ccccc2c1)C(=O)N[C@H](Cc1ccc(Cl)cc1)C(=O)N[C@H](Cc1cccnc1)C(=O)N[C@H]1CC(=O)NC[C@@H](C(N)=O)NC(=O)[C@@H]2CCCN2C(=O)[C@@H]2CCNC(=O)CNC(=O)CC[C@H](NC1=O)C(=O)N[C@H](CCCN=C(N)N)C(=O)N[C@@H](CC(C)C)C(=O)N2` (Ac-[d2Nal][dPhe(4-Cl)][d3Pal]DE[dR]L[Dab]P[Dap]-NH2; lactam 4-10; linker 5-8 via G), for which the outcome in experiment [12] was Active. Further, the Activity entry in experiment [13] and in experiment [14] was “Weak activity” throughout. The affinity in [2] corresponds to a Ki of 0.16 nM.
With `CC[C@H](NC(C)=O)C(=O)N[C@@H](Cc1ccc(Cl)cc1)C(=O)N[C@@H](Cc1c[nH]c2ccccc12)C(=O)N[C@@H](CC(=O)O)C(=O)N[C@@H]1CCC(=O)NCCCC[C@@H](C(=O)N2CCC[C@@H]2C(=O)N[C@@H](C)C(N)=O)NC(=O)[C@H](CC(C)C)NC(=O)[C@@H](CCCN=C(N)N)NC1=O` (stereo in doubt; 13), in experiment [15], the Activity result was “Weak activity”. The outcome in experiment [16] was Active.
As for `CC(=O)N[C@H](Cc1ccc2ccccc2c1)C(=O)N[C@H](Cc1ccc(Cl)cc1)C(=O)N[C@H](Cc1cccnc1)C(=O)N[C@H]1CC(=O)NC[C@@H](C(N)=O)NC(=O)[C@@H]2CCCN2C(=O)[C@@H]2CCNC(=O)[C@H](CCCN=C(N)N)NC(=O)CC[C@H](NC1=O)C(=O)N[C@H](CCCN=C(N)N)C(=O)N[C@@H](CC(C)C)C(=O)N2`, the outcome in [17] and in [18] was Active. This molecule yielded a Ki in experiment [2] of 0.2 nM. The result in experiment [19] was inactive.
